These results are taken from patent US12522598B2, “3-(2-(heteroaryl)-pyridin-4-yl)-5-(trifluoromethyl)-1,2,4-oxadiazole derivatives as HDAC6 inhibitors” (ORYZON GENOMICS, S.A., priority 2019, dated 2026).

Structures can show the parent of a compound that is named as a salt.

The target in the assay is T1, HDAC6 (Homo sapiens, UniProt Q9UBN7).
T1 construct: purchased BPS Bioscience 50006
T1 sequence (Q9UBN7 1-1215): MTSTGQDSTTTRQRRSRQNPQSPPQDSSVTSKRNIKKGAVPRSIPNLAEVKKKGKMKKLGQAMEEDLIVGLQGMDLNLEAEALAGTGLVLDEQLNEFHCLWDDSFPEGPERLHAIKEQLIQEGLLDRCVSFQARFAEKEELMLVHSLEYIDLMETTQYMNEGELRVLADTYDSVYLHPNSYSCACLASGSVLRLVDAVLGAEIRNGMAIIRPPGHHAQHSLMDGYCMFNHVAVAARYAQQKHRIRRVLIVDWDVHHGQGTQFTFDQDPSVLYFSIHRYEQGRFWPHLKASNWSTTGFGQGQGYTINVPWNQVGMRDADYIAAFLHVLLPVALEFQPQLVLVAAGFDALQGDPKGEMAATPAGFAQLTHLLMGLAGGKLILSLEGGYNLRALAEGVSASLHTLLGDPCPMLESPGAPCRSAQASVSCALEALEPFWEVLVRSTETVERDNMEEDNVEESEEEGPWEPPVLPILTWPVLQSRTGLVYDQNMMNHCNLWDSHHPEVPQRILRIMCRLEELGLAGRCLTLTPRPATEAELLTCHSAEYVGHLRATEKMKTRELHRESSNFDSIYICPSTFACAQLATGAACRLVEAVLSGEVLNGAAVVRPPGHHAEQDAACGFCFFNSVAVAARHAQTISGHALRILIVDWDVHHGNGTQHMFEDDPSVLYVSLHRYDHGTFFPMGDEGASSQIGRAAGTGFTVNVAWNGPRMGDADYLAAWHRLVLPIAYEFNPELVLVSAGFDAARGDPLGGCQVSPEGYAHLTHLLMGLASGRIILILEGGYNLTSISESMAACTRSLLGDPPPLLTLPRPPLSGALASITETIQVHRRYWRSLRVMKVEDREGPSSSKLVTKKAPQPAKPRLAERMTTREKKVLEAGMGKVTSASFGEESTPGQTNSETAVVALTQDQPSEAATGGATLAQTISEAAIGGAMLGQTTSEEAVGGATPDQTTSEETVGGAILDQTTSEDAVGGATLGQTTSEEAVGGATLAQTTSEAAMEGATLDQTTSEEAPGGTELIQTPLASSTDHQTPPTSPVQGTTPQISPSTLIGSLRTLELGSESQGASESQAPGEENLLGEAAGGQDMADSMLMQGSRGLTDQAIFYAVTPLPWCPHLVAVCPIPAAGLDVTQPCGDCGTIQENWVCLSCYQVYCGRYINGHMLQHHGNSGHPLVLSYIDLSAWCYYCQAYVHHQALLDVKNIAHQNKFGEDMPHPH
The assay is described as follows: HDAC6 enzyme inhibition assay (fluorimetric). The settings on record: 3 hours preincubation with enzyme, fraction of positive control; for inhibition at 0.1 µM: read-out: HDAC6 % inh @ 0.1 μM; for inhibition at 0.3 µM: read-out: HDAC6 % inh @ 0.3 μM; for inhibition at 1 µM: read-out: HDAC6 % inh @ 1 μM. It counts as biochemical. The method, then: A fluorimetric assay was used to determine the biochemical activity of the inhibitors on HDAC6 in 96-Well Half Area Black Microplates (Corning #3686)+TopSeal-A Black Sealing Film (Perkin Elmer #6050173). Test compounds were dissolved in DMSO. Half-log serial dilutions of test compounds were prepared in DMSO and then diluted 1:10 in assay buffer (BPS Bioscience #50031).
2.5 μL of enzyme (BPS Bioscience #50006) was incubated with 2.5 μL of test compounds for 3 hours in assay buffer with 0.1 mg/mL Bovine Serum Albumin (Sigma-Aldrich #A7030) at 21° C. in 22.5 μL total volume. The enzymatic reaction was started with the addition of 2.5 μL of a fluorogenic acetylated peptide substrate (BPS Bioscience #50037). The final concentration of enzyme and substrate in the reaction were 8.8 nM and 9 μM, respectively. After 45 minutes of incubation at 37° C., the addition of 25 μL of a development solution (BPS
Bioscience #50030) releases a fluorophore whose amount is proportional to the amount of the deacetylated product. Fluorescence intensity was measured after 15 minutes incubation at 21° C. with a Tecan Infinite F200 microplate reader (excitation 360 nm-emission 460 nm).
The negative control (background) was represented by the reaction mix in the absence of the enzyme (with 0.1% DMSO), while the positive control of deacetylase activity was obtained in the absence of test compounds (with 0.1% DMSO) after background subtraction. Percentage of inhibition was calculated as a fraction of the positive control.

As for `Cn1c(C(=O)N2CC[C@H](O)C2)cc2cc(-c3cc(-c4noc(C(F)(F)F)n4)ccn3)ncc21` [Example 2h, (S)-(3-Hydroxypyrrolidin-1-yl)(1-methyl-5-(4-(5-(trifluoromethyl)-1,2,4-oxadiazol-3-yl)pyridin-2-yl)-1H-pyrrolo[2,3-c]pyridin-2-yl)methanone hydrochloride], the inhibition at 0.1 µM (0.1 μM test compound) came to 65%. The inhibition at 0.3 µM (0.3 μM test compound) was 80%. Also, where the note is “1 μM test compound”, the inhibition at 1 µM came out at 94%.

On to `Cn1c(C(=O)N2CCOCC2)cc2cc(-c3cc(-c4noc(C(F)(F)F)n4)ccn3)ncc21` [Example 3, (1-Methyl-5-(4-(5-(trifluoromethyl)-1,2,4-oxadiazol-3-yl)pyridin-2yl)-1H-pyrrolo[2,3-c]pyridin-2-yl)(morpholino)methanone mesylate], for which the inhibition at 0.1 µM (0.1 μM test compound) came to 59%. In addition, the inhibition at 0.3 µM (0.3 μM test compound) came to 84%. The inhibition at 1 µM (1 μM test compound) is 93%.

Regarding `Cn1c(C(=O)N2CCNCC2)cc2cc(-c3cc(-c4noc(C(F)(F)F)n4)ccn3)ncc21` [Example 4, (1-Methyl-5-(4-(5-(trifluoromethyl)-1,2,4-oxadiazol-3-yl)pyridin-2-yl)-1H-pyrrolo[2,3-c]pyridin-2-yl)(piperazin-1-yl)methanone], the inhibition at 0.1 µM (0.1 μM test compound) was 69%. The inhibition at 0.3 µM (0.3 μM test compound) is 86%. The inhibition at 1 µM (1 μM test compound) was determined as 95%.

Turning to `COCCn1nc(-c2cc(-c3noc(C(F)(F)F)n3)ccn2)c2nccc(Cl)c21` [Example 5, 3-(2-(7-Chloro-1-(2-methoxyethyl)-1H-pyrazolo[4,3-b]pyridin-3-yl)pyridin-4-yl)-5-(trifluoromethyl)-1,2,4-oxadiazole], the inhibition at 0.1 µM (0.1 μM test compound) was determined as 61%. Besides, the inhibition at 0.3 µM (0.3 μM test compound) came to 82%. The inhibition at 1 µM (1 μM test compound) worked out at 94%.

For the compound `CC1(C)C2CCC1(CS(=O)(=O)O)C(=O)C2.Cn1c(C(=O)N2CC[C@H](O)C2)cc2cc(-c3cc(-c4noc(C(F)(F)F)n4)ccn3)ncc21` [Example 6, (S)-(3-Hydroxypyrrolidin-1-yl)(1-methyl-5-(4-(5-(trifluoromethyl)-1,2,4-oxadiazol-3-yl)pyridin-2-yl)-1H-pyrrolo[2,3-c]pyridin-2-yl)methanone (+) Camphorsulfonate Salt], the “HDAC6 % inh @ 0.1 μM” value (0.1 μM test compound) is reported as 61%. The “HDAC6 % inh @ 0.3 μM” value (0.3 μM test compound) was 81%. The “HDAC6 % inh @ 1 μM” value (1 μM test compound) was 91%.
